# According to patent US5441947A, “Methods of inhibiting vascular restenosis” (Eli Lilly and Company, priority 1993, dated 1995):
# Values joined by “and” are separate entries in the source; they are usually repeats but may differ in a detail not shown here. Equal values may be shown once.
# Tested on: smooth muscle cell chemotaxis
# Assay: smooth muscle cell chemotaxis (96 well chemotaxis chamber, PDGF-BB as inducer)
# Format: cell-based
# Details: four hours; for Degree of Cell Migration: absorbance; for IC50: 4 h, PDGF-BB 10 ng/ml as inducer, 37° C., read-out: half maximal inhibiting concentrations (IC50) to inhibit smooth muscle cell chemotaxis
# Experimental: Compounds of the invention were tested for impact on smooth muscle cell chemotaxis using a model AB96 Neuro Probe® 96 well chemotaxis chaser. […] This chamber is available from Neuro Probe, Inc., P.O. Box 400, Cabin John, Md.
# The chamber consists of a top plate, a bottom plate, a gasket and a polyvinyl pyrrolidone-free polycarbonate filter. […] The 8 μm pore filter is soaked in 0.5N acetic acid overnight and coated with collagen at 100 μg/ml in 0.1N acetic acid for 2 days. The filter is then dried in a hood. The filter is then installed on the bottom plate, followed by the gasket. The top plate is then placed on the gasket, forming the top wells. In the top wells, smooth muscle cells are placed with the compounds to be tested at specified concentrations in around 225 μl volume. The smooth muscle cells are plated at a density of 0.5×10^6 cells/mi. The chamber is incubated at 37° C., 5% CO2 for four hours, and at the end of this time the upper well-cells are scraped off. The lower well cells are fixed, stained, and the absorbance is read.
# [1] = 10 μm compound, PDGF-BB 10 ng/ml
# [2] = 0.1 μm compound, PDGF-BB 10 ng/ml
# [3] = 0.03 μM compound, PDGF-BB 10 ng/ml
# [4] = 0.3 μm compound, PDGF-BB 10 ng/ml
Molecule,IC50 [nM],Degree of Cell Migration [2],also measured
"Cc1c2c(c(O)c3occ(C(=O)O)c13)[C@@H]1CCC(=O)[C@@]1(C)C=C2 [IVa, opened A-ring acid of wortmannin]",> 10000,,Degree of Cell Migration [1]: 0.04
"COCC1OC(=O)c2coc3c2C1(C)C1=C(C3=O)C2CCC(O)C2(C)CC1OC(C)=O (stereo not drawn) [IIIA, 17α-Dihydrowortmannin]",20,-0.010,"Degree of Cell Migration (0.01 μm compound, PDGF-BB 10 ng/ml): 0.033"
"COC(=O)c1coc2c(O)c3c(c(C)c12)C=C[C@]1(C)C(=O)CC[C@@H]31 [IVb, opened A-ring methyl ester of wortmannin]",10000,,Degree of Cell Migration [1]: 0.026
"COc1cc2c(c(OC)c1OC)-c1ccc(OC)c(=O)cc1[C@@H](NC(C)=O)CC2 [Colchicine, reference compound]",,,"Degree of Cell Migration (1 μm compound, PDGF-BB 10 ng/ml): 0.000"
"COCC1OC(=O)c2coc3c2C1(C)C1=C(C3=O)C2CCC(=O)C2(C)CC1OC(C)=O (stereo not drawn) [Ia, wortmannin]",30,0.006,Degree of Cell Migration [3]: 0.020; Degree of Cell Migration [4]: -0.001
"COC[C@H]1OC(=O)c2coc3c2[C@@]1(C)C1=CC[C@]2(C)C(=O)CC[C@H]2C1C3=O (stereo partly drawn) [II, Δ9,11-dehydrodesacetoxywortmannin]",200,,
"COC[C@H]1OC(=O)c2coc3c2[C@@]1(C)C1=C(C3=O)[C@@H]2CCC(=O)[C@@]2(C)CC1 [Ib, 11-desacetoxywortmannin]",200,0.040 and 0.028,Degree of Cell Migration [3]: 0.044 and 0.036; Degree of Cell Migration [4]: 0.015
"PDGF: PDGF-BB at 10 ng/ml as an inducer, or chemoattractant (protein, UniProt P01127 82-190, looked up) Platelet-derived growth …: SLGSLTIAEPAMIAECKTRTEVFEISRRLIDRTNANFLVWPPCVEVQRCSGCCNNRNVQCRPTQVQLRPVQVRKIEIVRKKPIFKKATVTLEDHLACKCETVAAARPVT",,,Degree of Cell Migration (PDGF 10 ng/ml alone (inducer control)): 0.046
